We go through 20 compounds from patent US12338237B2, “Derivatives having 1,2,3,4-tetrahydronaphthalene moiety or pharmaceutically acceptable salt thereof and pharmaceutical compositions comprising the same” (YUHAN CORPORATION, priority 2019, dated 2025).

Read-outs that look alike come from different tables or passages of the source.

Assay [1] has as its target glucosylceramide synthase (GCS) (Homo sapiens (Human), UniProt Q16739). Briefly: Evaluation of inhibitory activities against GCS (enzyme reaction with A549 cell lysate, NBD C6-ceramide, HPLC fluorescence). The conditions noted are these: GCS activity in A549 cell lysate, 37° C. for 90 minutes. The assay is classed as biochemical. An outline of the steps:
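Lysate of A549 cells in 50 mM HEPES pH 7.3 incubated with test compound and NBD C6-ceramide at 37 °C for 90 min; lipids extracted with chloroform/methanol and GlcCer and ceramide peaks quantified by HPLC fluorescence. Activity from GlcCer area fraction, normalised between DMSO and ibiglustat controls.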

Another assay concerns GM1 production. The assay can be described thus: cells. The assay is classed as cell-based.

Sequence of glucosylceramide synthase (GCS) (Q16739 whole entry, looked up): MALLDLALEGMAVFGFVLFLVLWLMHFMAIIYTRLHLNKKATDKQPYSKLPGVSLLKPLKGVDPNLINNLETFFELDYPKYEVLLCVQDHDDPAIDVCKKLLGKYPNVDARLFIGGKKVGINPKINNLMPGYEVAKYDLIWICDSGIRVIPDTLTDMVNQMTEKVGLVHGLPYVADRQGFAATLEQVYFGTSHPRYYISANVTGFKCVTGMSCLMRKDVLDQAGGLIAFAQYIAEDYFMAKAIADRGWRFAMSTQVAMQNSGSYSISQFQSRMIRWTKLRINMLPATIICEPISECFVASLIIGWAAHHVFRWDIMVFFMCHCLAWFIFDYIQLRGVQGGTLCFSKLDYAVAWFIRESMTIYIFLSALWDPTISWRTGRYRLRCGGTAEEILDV

Consider `COc1cccc(-c2ccc3c(c2)CCC2(CC2)C3NC(=O)O[C@@H]2CN3CCC2CC3)c1OC` (stereo partly drawn) [Example 209, (S)-quinuclidin-3-yl (6′-(2,3-dimethoxyphenyl)-3′,4′-dihydro-1′H-spiro[cyclopropane-1,2′-naphthalen]-1′-yl)carbamate], for which the IC50 in assay [1] worked out at 15.2 nM; in the assay with GM1 production (Homo sapiens, Jurkat, 72 h) it was 47 nM.

Consider `COc1ccc(-c2ccc3c(c2)CCC2(CC2)C3NC(=O)O[C@@H]2CN3CCC2CC3)c(OC)c1` (stereo partly drawn) [Example 210, (S)-quinuclidin-3-yl (6′-(2,4-dimethoxyphenyl)-3′,4′-dihydro-1′H-spiro[cyclopropane-1,2′-naphthalen]-1′-yl)carbamate], for which the 50% inhibitory concentration (IC50) in assay [1] turned out to be 23.6 nM; in the assay with GM1 production (Homo sapiens, Jurkat, 72 h) it was 44.2 nM.

On to `COc1ccc(OC)c(-c2ccc3c(c2)CCC2(CC2)C3NC(=O)O[C@@H]2CN3CCC2CC3)c1` (stereo partly drawn) [Example 211, (S)-quinuclidin-3-yl (6′-(2,5-dimethoxyphenyl)-3′,4′-dihydro-1′H-spiro[cyclopropane-1,2′-naphthalen]-1′-yl)carbamate], for which the 50% inhibitory concentration (IC50) stood at 27.6 nM in assay [1] and 147 nM with GM1 production (Homo sapiens, Jurkat, 72 h).

Regarding `COc1cccc(OC)c1-c1ccc2c(c1)CCC1(CC1)C2NC(=O)O[C@@H]1CN2CCC1CC2` (stereo partly drawn) [Example 212, (S)-quinuclidin-3-yl (6′-(2,6-dimethoxyphenyl)-3′,4′-dihydro-1′H-spiro[cyclopropane-1,2′-naphthalen]-1′-yl)carbamate], the IC50 turned out to be 104 nM in assay [1] and 221 nM in the assay with GM1 production (Homo sapiens, Jurkat, 72 h).

Regarding `COc1ccc(-c2ccc3c(c2)CCC2(CC2)C3NC(=O)O[C@@H]2CN3CCC2CC3)cc1OC` (stereo partly drawn) [Example 213, (S)-quinuclidin-3-yl (6′-(3,4-dimethoxyphenyl)-3′,4′-dihydro-1′H-spiro[cyclopropane-1,2′-naphthalen]-1′-yl)carbamate], the IC50 in assay [1] came out at 34.2 nM; in the assay with GM1 production (Homo sapiens, Jurkat, 72 h), 145 nM.

On to `COc1cc(OC)cc(-c2ccc3c(c2)CCC2(CC2)C3NC(=O)O[C@@H]2CN3CCC2CC3)c1` (stereo partly drawn) [Example 214, (S)-quinuclidin-3-yl (6′-(3,5-dimethoxyphenyl)-3′,4′-dihydro-1′H-spiro[cyclopropane-1,2′-naphthalen]-1′-yl)carbamate], for which the IC50 in assay [1] turned out to be 32.6 nM; in the assay on GM1 production (Homo sapiens, Jurkat, 72 h) it was 62.3 nM.

With `COc1ccc(-c2ccc3c(c2)CCC2(CC2)C3NC(=O)O[C@@H]2CN3CCC2CC3)cc1` (stereo partly drawn) [Example 215, (S)-quinuclidin-3-yl (6′-(4-methoxyphenyl)-3′,4′-dihydro-1′H-spiro[cyclopropane-1,2′-naphthalen]-1′-yl) carbamate], the 50% inhibitory concentration (IC50) worked out at 2.35 nM in assay [1] and 57.3 nM in the assay with GM1 production (read-out: IC50).

As to `COc1cccc(-c2ccc3c(c2)CCC2(CC2)C3NC(=O)O[C@@H]2CN3CCC2CC3)c1` (stereo partly drawn) [Example 216, (S)-quinuclidin-3-yl (6′-(3-methoxyphenyl)-3′,4′-dihydro-1′H-spiro[cyclopropane-1,2′-naphthalen]-1′-yl) carbamate], the half-maximal inhibitory concentration (IC50) is 12.2 nM in assay [1] and 115 nM with GM1 production (read-out: IC50).

Turning to `CCOc1ccc(-c2ccc3c(c2)CCC2(CC2)C3NC(=O)O[C@@H]2CN3CCC2CC3)cc1` (stereo partly drawn) [Example 217, (S)-quinuclidin-3-yl (6′-(4-ethoxyphenyl)-3′,4′-dihydro-1′H-spiro[cyclopropane-1,2′-naphthalen]-1′-yl)carbamate], the IC50 in assay [1] turned out to be 1.01 nM; in the assay with GM1 production (Homo sapiens, Jurkat, 72 h), 15.8 nM.

For `CCOc1cccc(-c2ccc3c(c2)CCC2(CC2)C3NC(=O)O[C@@H]2CN3CCC2CC3)c1` (stereo partly drawn) [Example 218, (S)-quinuclidin-3-yl (6′-(3-ethoxyphenyl)-3′,4′-dihydro-1′H-spiro[cyclopropane-1,2′-naphthalen]-1′-yl)carbamate], the half-maximal inhibitory concentration (IC50) in assay [1] stood at 19.8 nM; with GM1 production (Homo sapiens, Jurkat, 72 h), 63.3 nM.

In the case of `CC(C)Oc1ccc(-c2ccc3c(c2)CCC2(CC2)C3NC(=O)O[C@@H]2CN3CCC2CC3)cc1` (stereo partly drawn) [Example 219, (S)-quinuclidin-3-yl (6′-(4-isopropoxyphenyl)-3′,4′-dihydro-1′H-spiro[cyclopropane-1,2′-naphthalen]-1′-yl)carbamate], the IC50 amounted to 1.1 nM in assay [1] and 16 nM with GM1 production (Homo sapiens, Jurkat, 72 h).

For `CCCOc1ccc(-c2ccc3c(c2)CCC2(CC2)C3NC(=O)O[C@@H]2CN3CCC2CC3)cc1` (stereo partly drawn) [Example 220, (S)-quinuclidin-3-yl (6′-(4-propoxyphenyl)-3′,4′-dihydro-1′H-spiro[cyclopropane-1,2′-naphthalen]-1′-yl) carbamate], the IC50 in assay [1] came to 0.63 nM; in the assay with GM1 production (read-out: IC50) it was 6.7 nM.

As for `CCc1ccc(-c2ccc3c(c2)CCC2(CC2)C3NC(=O)O[C@@H]2CN3CCC2CC3)cc1` (stereo partly drawn) [Example 221, (S)-quinuclidin-3-yl (6′-(4-ethylphenyl)-3′,4′-dihydro-1′H-spiro[cyclopropane-1,2′-naphthalen]-1′-yl)carbamate], the IC50 in assay [1] was determined as 2.01 nM; in the assay on GM1 production (Homo sapiens, Jurkat, 72 h), 18.8 nM.

In the case of `CCCc1ccc(-c2ccc3c(c2)CCC2(CC2)C3NC(=O)O[C@@H]2CN3CCC2CC3)cc1` (stereo partly drawn) [Example 222, (S)-quinuclidin-3-yl (6′-(4-propylphenyl)-3′,4′-dihydro-1′H-spiro[cyclopropane-1,2′-naphthalen]-1′-yl)carbamate], the half-maximal inhibitory concentration (IC50) came to 0.75 nM in assay [1] and 9.3 nM with GM1 production (Homo sapiens, Jurkat, 72 h).

Take `CC(C)c1ccc(-c2ccc3c(c2)CCC2(CC2)C3NC(=O)O[C@@H]2CN3CCC2CC3)cc1` (stereo partly drawn) [Example 223, (S)-quinuclidin-3-yl (6′-(4-isopropylphenyl)-3′,4′-dihydro-1′H-spiro[cyclopropane-1,2′-naphthalen]-1′-yl)carbamate]: the half-inhibitory concentration (IC50) in assay [1] was 2.4 nM; in the assay with GM1 production (Homo sapiens, Jurkat, 72 h), 24.1 nM.

On to `CC(C)Cc1ccc(-c2ccc3c(c2)CCC2(CC2)C3NC(=O)O[C@@H]2CN3CCC2CC3)cc1` (stereo partly drawn) [Example 224, (S)-quinuclidin-3-yl (6′-(4-isobutylphenyl)-3′,4′-dihydro-1′H-spiro[cyclopropane-1,2′-naphthalen]-1′-yl)carbamate], for which the half-maximal inhibitory concentration (IC50) was 1.53 nM in assay [1] and 6.7 nM in the assay with GM1 production (Homo sapiens, Jurkat, 72 h).

For `CC(C)(C)c1ccc(-c2ccc3c(c2)CCC2(CC2)C3NC(=O)O[C@@H]2CN3CCC2CC3)cc1` (stereo partly drawn) [Example 225, (S)-quinuclidin-3-yl (6′-(4-(tert-butyl)phenyl)-3′,4′-dihydro-1′H-spiro[cyclopropane-1,2′-naphthalen]-1′-yl)carbamate], the 50% inhibitory concentration (IC50) in assay [1] is 6.55 nM; in the assay on GM1 production (Homo sapiens, Jurkat, 72 h), 22.4 nM.

In the case of `O=C(NC1c2ccc(-c3ccc(C4CC4)cc3)cc2CCC12CC2)O[C@@H]1CN2CCC1CC2` (stereo partly drawn) [Example 226, (S)-quinuclidin-3-yl (6′-(4-cyclopropylphenyl)-3′,4′-dihydro-1′H-spiro[cyclopropane-1,2′-naphthalen]-1′-yl)carbamate], the IC50 in assay [1] came to 0.93 nM; with GM1 production (Homo sapiens, Jurkat, 72 h), 10.8 nM.

Take `COc1ccc(-c2cc3c(cc2F)C(NC(=O)O[C@@H]2CN4CCC2CC4)C(C)(C)CC3)cc1F` (stereo partly drawn) [Example 227, (S)-quinuclidin-3-yl (7-fluoro-6-(3-fluoro-4-methoxyphenyll)-2,2-dimethyl-1,2,3,4-tetrahydronaphthalen-1-yl)carbamate]: the half-inhibitory concentration (IC50) amounted to 0.5 nM in assay [1] and 12.8 nM in the assay on GM1 production (read-out: IC50).

In the case of `CCCOc1c(C)cc(-c2cc3c(cc2F)C(NC(=O)O[C@@H]2CN4CCC2CC4)C(C)(C)CC3)cc1C` (stereo partly shown) [Example 228], the IC50 in assay [1] worked out at 1.34 nM; in the assay with GM1 production (read-out: IC50), 12.5 nM.
